Reference: BindingDB's records for patent US12371428 (Exelixis, 2025)

Key:
[1] = biological target: T1, Tyrosine-protein kinase Mer (Homo sapiens, UniProt Q12866); test: Human Mer Kinase Assay
T1 sequence (Q12866 whole entry): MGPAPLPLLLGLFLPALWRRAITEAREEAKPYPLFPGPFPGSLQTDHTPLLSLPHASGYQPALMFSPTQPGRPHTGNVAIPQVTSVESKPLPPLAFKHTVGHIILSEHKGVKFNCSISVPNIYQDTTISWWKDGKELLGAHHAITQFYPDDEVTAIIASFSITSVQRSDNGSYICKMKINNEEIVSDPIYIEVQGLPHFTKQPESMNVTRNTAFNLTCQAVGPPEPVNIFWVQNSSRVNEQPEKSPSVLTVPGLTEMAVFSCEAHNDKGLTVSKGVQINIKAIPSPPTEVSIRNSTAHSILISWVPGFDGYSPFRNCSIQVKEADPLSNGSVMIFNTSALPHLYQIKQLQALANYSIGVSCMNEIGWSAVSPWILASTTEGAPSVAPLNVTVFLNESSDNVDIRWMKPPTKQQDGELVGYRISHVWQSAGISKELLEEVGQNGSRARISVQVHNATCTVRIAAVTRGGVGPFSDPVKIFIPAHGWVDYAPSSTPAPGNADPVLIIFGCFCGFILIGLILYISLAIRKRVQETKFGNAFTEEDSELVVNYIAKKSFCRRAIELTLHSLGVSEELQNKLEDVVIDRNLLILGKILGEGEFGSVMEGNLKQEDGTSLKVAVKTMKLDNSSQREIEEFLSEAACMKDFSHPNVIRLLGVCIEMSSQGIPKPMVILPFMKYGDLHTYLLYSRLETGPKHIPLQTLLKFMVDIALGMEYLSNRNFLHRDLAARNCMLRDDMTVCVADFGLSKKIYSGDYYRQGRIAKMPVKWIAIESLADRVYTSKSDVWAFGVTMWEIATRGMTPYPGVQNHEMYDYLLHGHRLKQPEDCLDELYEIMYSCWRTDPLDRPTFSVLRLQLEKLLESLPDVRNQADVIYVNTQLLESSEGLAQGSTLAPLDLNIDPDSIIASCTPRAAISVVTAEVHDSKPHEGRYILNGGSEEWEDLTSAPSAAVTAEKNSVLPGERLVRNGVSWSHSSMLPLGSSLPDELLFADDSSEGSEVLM
Description: Example C-1: Human Mer (residues R557-E882 with H628Q and R794A, 0.7 nM) was incubated with 8 mM MOPS pH 7.0, 0.2 mM EDTA, 30 mM NaCl, 250 μM […] (SEQ ID NO:2), 10 mM magnesium acetate, and 10 μM [γ-33P-ATP]. The reaction was initiated by the addition of the Mg/ATP mix. After incubation for 40 minutes at room temperature, the reaction was stopped by the addition of phosphoric acid to a concentration of 0.5%. A reaction aliquot of 10 μL was then spotted onto a P30 filtermat and washed four times for 4 minutes in 0.425% phosphoric acid and once in methanol prior to drying and scintillation counting. Incorporated 33P was measured using the Wallac Microbeta scintillation counter (Perkin Elmer).Example C-2: Human MER (residues 528-999; CarnaBio, 1 ng/well) was also incubated with enzymatic buffer (Cisbio) supplemented with 5 mM MgCl2 and 1 mM DTT. The mixture was added to the pre-plated compounds. The reaction was initiated upon addition of ATP at Km (40 μM). The reaction was incubated at room temperature for 60 min and stopped upon the addition of SA-XL665 and TK-antibody both diluted in EDTA-containing kinase detection buffer (Cisbio). The kinase activity was calculated as stated above and the IC50 values were reported.

[2] = biological target: Hepatocyte growth factor receptor (Homo sapiens, UniProt P08581); test: Human Met Kinase Assay
Sequence of Hepatocyte growth factor receptor (P08581 whole entry, the tested form may be a part): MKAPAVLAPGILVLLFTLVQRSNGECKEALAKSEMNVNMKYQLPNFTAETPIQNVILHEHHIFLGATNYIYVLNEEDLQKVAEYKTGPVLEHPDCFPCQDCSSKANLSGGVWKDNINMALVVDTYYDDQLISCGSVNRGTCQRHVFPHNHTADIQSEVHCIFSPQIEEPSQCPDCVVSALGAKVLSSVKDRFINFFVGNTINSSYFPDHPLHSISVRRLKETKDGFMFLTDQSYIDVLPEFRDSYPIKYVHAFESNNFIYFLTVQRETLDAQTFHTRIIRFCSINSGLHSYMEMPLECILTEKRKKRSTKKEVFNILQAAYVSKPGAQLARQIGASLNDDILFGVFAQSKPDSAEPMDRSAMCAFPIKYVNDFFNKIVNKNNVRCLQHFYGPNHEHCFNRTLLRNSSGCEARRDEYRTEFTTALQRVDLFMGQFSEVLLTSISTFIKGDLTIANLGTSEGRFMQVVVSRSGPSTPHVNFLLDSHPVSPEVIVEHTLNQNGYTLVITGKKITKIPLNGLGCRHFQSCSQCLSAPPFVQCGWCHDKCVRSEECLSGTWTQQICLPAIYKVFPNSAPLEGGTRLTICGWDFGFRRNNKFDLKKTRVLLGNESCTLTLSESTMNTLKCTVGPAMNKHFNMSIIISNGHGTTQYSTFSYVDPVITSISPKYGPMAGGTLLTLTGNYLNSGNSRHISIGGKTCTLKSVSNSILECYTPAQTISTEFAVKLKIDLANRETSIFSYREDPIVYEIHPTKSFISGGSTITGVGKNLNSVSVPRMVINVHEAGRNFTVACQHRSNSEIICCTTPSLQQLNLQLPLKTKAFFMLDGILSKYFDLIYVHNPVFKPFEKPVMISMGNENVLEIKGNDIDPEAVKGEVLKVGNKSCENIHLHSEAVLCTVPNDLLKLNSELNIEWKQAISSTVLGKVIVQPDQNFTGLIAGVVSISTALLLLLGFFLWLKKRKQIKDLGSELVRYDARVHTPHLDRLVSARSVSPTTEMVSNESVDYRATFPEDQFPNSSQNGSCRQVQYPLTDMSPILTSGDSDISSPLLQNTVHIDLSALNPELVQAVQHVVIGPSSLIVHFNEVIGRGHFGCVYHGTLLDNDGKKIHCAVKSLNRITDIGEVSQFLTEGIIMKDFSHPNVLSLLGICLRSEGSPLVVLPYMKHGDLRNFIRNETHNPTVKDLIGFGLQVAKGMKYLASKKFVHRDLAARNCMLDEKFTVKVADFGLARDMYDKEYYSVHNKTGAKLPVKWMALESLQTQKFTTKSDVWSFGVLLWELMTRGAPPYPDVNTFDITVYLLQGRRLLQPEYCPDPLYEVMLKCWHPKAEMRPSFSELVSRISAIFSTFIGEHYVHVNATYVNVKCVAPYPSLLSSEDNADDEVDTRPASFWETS
Description: Example D-1: Human Met (residues R974-S1390 with A1209G and V1290L, 3.4 nM) was incubated with 8 mM MOPS pH 7.0, 0.2 mM EDTA, 250 µM […] (SEQ ID NO:3), 1 mM sodium orthovanadate, 5 mM […], 10 mM magnesium acetate, and 10 μM [γ-33P-ATP]. The reaction was initiated by the addition of the Mg/ATP mix. After incubation for 40 minutes at room temperature, the reaction was stopped by the addition of phosphoric acid to a concentration of 0.5%. A reaction aliquot of 10 μL was then spotted onto a P30 filtermat and washed four times for 4 minutes in 0.425% phosphoric acid and once in methanol prior to drying and scintillation counting. Incorporated 33P was measured using the Wallac Microbeta scintillation counter (Perkin Elmer).Example D-2: Human MET (residues 956-1390; CarnaBio, 0.1 ng/well) was also incubated with enzymatic buffer (Cisbio) supplemented with 5 mM MgCl2, 1 mM DTT and 1 mM MnCl2. The mixture was added to the pre-plated compounds. […] The reaction was incubated at room temperature for 40 min and stopped upon the addition of SA-XL665 and TK-antibody both diluted in EDTA-containing kinase detection buffer (Cisbio). The kinase activity was calculated as stated above and the IC50 values were reported.

[3] = biological target: Vascular endothelial growth factor receptor 2 (Homo sapiens, UniProt P35968); test: Human KDR Kinase Assay
Sequence of Vascular endothelial growth factor receptor 2 (P35968 whole entry, the tested form may be a part): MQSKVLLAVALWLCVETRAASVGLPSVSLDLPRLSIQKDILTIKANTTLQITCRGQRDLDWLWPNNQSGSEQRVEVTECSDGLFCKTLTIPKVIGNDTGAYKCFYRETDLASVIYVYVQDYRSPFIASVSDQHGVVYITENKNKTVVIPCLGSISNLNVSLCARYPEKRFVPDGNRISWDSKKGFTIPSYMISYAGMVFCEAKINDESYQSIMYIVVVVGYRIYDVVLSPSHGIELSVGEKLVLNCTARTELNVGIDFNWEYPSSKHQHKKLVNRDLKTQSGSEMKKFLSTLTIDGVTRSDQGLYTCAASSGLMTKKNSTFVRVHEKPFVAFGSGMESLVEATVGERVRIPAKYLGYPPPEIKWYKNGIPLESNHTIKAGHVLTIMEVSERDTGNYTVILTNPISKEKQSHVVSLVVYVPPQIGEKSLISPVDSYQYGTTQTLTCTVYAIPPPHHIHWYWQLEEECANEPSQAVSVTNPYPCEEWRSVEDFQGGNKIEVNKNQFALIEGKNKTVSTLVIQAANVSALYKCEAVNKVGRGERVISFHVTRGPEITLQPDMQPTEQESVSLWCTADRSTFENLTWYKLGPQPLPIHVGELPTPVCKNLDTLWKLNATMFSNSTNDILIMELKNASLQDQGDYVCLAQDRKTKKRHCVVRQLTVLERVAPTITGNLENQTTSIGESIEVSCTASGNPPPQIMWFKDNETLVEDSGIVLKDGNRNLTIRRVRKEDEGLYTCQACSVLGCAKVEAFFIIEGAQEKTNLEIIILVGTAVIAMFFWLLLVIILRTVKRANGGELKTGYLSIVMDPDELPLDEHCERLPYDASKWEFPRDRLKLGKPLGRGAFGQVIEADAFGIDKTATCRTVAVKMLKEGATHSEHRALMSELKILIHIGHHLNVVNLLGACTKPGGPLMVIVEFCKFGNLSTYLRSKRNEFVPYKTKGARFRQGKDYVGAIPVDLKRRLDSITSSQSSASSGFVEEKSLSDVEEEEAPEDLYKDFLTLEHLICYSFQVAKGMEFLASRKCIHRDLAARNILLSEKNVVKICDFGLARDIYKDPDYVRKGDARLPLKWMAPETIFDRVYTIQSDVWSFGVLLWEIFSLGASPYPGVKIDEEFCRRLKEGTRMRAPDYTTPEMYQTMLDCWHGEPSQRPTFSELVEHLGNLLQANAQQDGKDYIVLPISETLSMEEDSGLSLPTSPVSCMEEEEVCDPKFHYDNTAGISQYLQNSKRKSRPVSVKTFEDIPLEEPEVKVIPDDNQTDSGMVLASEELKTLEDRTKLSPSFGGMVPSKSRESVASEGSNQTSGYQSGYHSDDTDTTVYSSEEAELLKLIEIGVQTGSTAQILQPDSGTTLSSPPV
Description: Example B-1: Human KDR (residues K790-V1356, 55 nM) was incubated with 8 mM MOPS pH 7.0, 0.2 mM EDTA, 0.33 mg/mL myelin basic protein, 10 mM magnesium acetate, and 10 μM [γ-33P-ATP]. The reaction was initiated by the addition of the Mg/ATP mix. After incubation for 40 minutes at room temperature, the reaction was stopped by the addition of phosphoric acid to a concentration of 0.5%. A reaction aliquot of 10 μL was then spotted onto a P30 filtermat and washed four times for 4 minutes in 0.425% phosphoric acid and once in methanol prior to drying and scintillation counting. Incorporated 33P was measured using the Wallac Microbeta scintillation counter (Perkin Elmer).Example B-2: Human KDR (residues 790-1356; CarnaBio, 0.1 ng/well) was also incubated with enzymatic buffer (Cisbio) supplemented with 5 mM MgCl2, 1 mM MnCl2, and 1 mM DTT. The mixture was added to the pre-plated compounds. The reaction was initiated upon addition of ATP at Km (4.0 μM). The reaction was incubated at room temperature for 40 min and stopped upon the addition of SA-XL665 and TK-antibody both diluted in EDTA-containing kinase detection buffer (Cisbio). The kinase activity was calculated as stated above and the IC50 values were reported.

| IC50 [1] [nM] | IC50 [2] [nM] | IC50 [3] [nM] | SMILES |
| --- | --- | --- | --- |
| < 100 | < 100 | < 100 | COc1cc2nccc(Oc3ccc(NC(=O)C4C(=O)C(c5ccc(F)cc5)=C(C)N=C4C)cc3F)c2nc1OC (stereo unspecified) [US12371428, Compound 154] |
| < 100 | < 100 | < 100 | COCCOc1ccc2nccc(Oc3ccc(NC(=O)C4=C(C)N=C(C)C(c5ccc(F)cc5)C4O)cc3F)c2n1 (stereo unspecified) [US12371428, Compound 349] |
